According to patent US20120010206A1, “IMIDAZOLOPYRIDINE COMPOUNDS USEFUL FOR THE TREATMENT OF DEGENERATIVE AND INFLAMMATORY DISEASES” (priority 2006, published 2012):

Target: T1, TAK1-TAB1 fusion protein (Homo sapiens, UniProt O43318)
T1 construct: purchased Upstate 14-600
T1 sequence (O43318 with tags, fused parts or gaps limits assumed): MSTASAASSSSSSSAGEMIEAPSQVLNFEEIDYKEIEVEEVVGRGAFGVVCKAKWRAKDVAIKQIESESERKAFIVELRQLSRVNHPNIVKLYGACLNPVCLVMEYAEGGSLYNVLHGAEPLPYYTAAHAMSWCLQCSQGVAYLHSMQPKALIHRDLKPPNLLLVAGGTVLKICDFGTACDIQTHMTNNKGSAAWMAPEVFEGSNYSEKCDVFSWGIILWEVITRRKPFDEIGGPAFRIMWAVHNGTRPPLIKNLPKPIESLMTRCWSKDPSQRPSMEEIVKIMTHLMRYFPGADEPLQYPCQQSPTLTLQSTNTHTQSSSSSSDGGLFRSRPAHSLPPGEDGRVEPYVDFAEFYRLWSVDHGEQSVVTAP
Assay: In vitro TAK1 kinase assay (33P-ATP, casein substrate)
Assay type: biochemical
Settings: semi-quantitative score, at least two independent experiments
Procedure: For assessing TAK1 inhibition, active TAK1-TAB1 fusion protein was used from Upstate (Cat. No, 14-600). Kinase reactions are set up in 96-well polypropylene plates in 25 μL containing 0.5 mU TAK1-TAB1 fusion protein, […], 0.01 μCi/μL [^33P]-γ-ATP, 0.1 mg/mL casein substrate in 1× reaction buffer containing 10 mM MOPS pH 7.0, 1 mM EDTA.
Starting from the compound master stocks (all at 10 mM concentration in 100% DMSO) a 3-fold serial dilution is made in 96-well plates in 100% DMSO. Plates are further diluted […] in H2O containing 3.5% DMSO, to obtain an intermediate work stock with compounds at 5× the final assay concentration in 5% DMSO.
5 μL of the intermediate stock is transferred into V-bottom 96 well polypropylene plates and 11 μL of Enzyme mix is added. Enzyme mix is made by combining 5 μL 5× reaction buffer ([…] pH 7.0, 1 mM EDTA), 5 μL casein (Sigma) diluted in H2O to 0.5 mg/mL and 1 μL of TAK1-TAB1 fusion protein that was prediluted to 0.5 mU/μL in 1× enzyme dilution buffer (20 mM MOPS pH 7.0, 0.1 mM EDTA, 0.01% Brij-35, 5% glycerol, 1 mM DTT, 1 mg/ml BSA).
The reactions are started by the addition of 9 μL of mixture containing ATP (20.83 uM) and [^33P]-γ-ATP (0.028 μCi/μL).
The assay is stopped 90 minutes after incubation at 30° C. by the addition of 25 μL phosphoric acid (150 mM). The label incorporated into the casein substrate is separated from labeled unincorporated ATP by filtration onto 96-well filter plates using a harvester device. After 6 washes with 75 mM phosphoric acid, the bottom of the filter plates are sealed, and incorporated label is quantified after addition of 40 μL scintillation fluid using TopCount.
Based on these percent inhibition data obtained in at least two independent experiments for the compounds, compounds are ranked using semi-quantitative scores. Table A below lists a number of compounds which have been or can be prepared according to the synthetic methods described herein. Semi-quantitative score: • *>3001 nM • ** 1001-3000 nM • *** 101-1000 nM • ****<100 nM

SMILES	IC50
O=c1cc(-c2ccc(Nc3ccc(N4CCC(N5CCC(O)CC5)CC4)cc3)c3nccn23)cc[nH]1 [Compound 123, 4-{8-[4-(4-Hydroxy-[1,4′]bipiperidinyl-1′-yl)-phenylamino]-imidazo[1,2-a]pyridin-5-yl}-1H-pyridin-2-one]	1000 to 3000 nM
C[C@@H]1CN(c2ccc(Nc3ccc(-c4cc[nH]c(=O)c4)n4ccnc34)cc2)C[C@H](C)O1 [Compound 113, 4-{8-[4-((2R,6S)-2,6-Dimethyl-morpholin-4-yl)-phenylamino)-imidazo[1,2-a]pyridin-5-yl}-1H-pyridin-2-one]	1000 to 3000 nM
O=c1cc(-c2ccc(Nc3ccc(N4CCC(F)CC4)cc3)c3nccn23)cc[nH]1 [Compound 116, 4-{8-[4-(4-Fluoro-piperidin-1-yl)-phenylamino]-imidazo[1,2-a]pyridin-5-yl}-1H-pyridin-2-one]	1000 to 3000 nM
O=c1cc(-c2ccc(Nc3ccc(N4CCN5CCCCC5C4)cc3)c3nccn23)cc[nH]1 (stereo not shown) [Compound 114, 4-{8′-[4-(Octahydro-pyrido[1,2-a]pyrazin-2-yl)-phenylamino]-imidazo[1,2-a]pyridin-5-yl}-1H-pyridin-2-one]	101 to 1000 nM
COCCNC(=O)c1ccc(Nc2ccc(-c3ccc4c(c3)CNC4=O)n3ccnc23)cc1 [Compound 58, N-(2-methoxyethyl)-4-(5-(1-oxoisoindolin-5-yl)imidazo[1,2-a]pyridin-8-ylamino)benzamide]	101 to 1000 nM
CC1CCCN(C2CCN(C(=O)c3ccc(Nc4ccc(-c5ccc6c(c5)CNC6=O)n5ccnc45)cc3)CC2)C1 (stereo not shown) [Compound 54, 5-{8-[4-(3-Methyl-[1,4′]bipiperidinyl-1′-carbonyl)-phenylamino]-imidazo [1,2-a]pyridin-5-yl}-2,3-dihydro-isoindol-1-one]	101 to 1000 nM
O=c1cc(-c2ccc(Nc3ccc(C4CCNCC4)cc3)c3nccn23)cc[nH]1 [Compound 100]	101 to 1000 nM
CCN1CCN(c2ccc(Nc3ccc(-c4cc[nH]c(=O)c4)n4ccnc34)cc2Cl)CC1 [Compound 104]	101 to 1000 nM
C[C@@H]1CN(c2ccc(Nc3ccc(-c4cc[nH]c(=O)c4)n4ccnc34)cc2)C[C@H](C)N1C [Compound 98]	101 to 1000 nM
O=c1cc(-c2ccc(Nc3ccc(N4CCN(CC(F)F)CC4)cc3)c3nccn23)cc[nH]1 [Compound 110, 4-(8-{4-[4-(2,2-Difluoro-ethyl)-piperazin-1-yl]-phenylamino}-imidazo[1,2-a]pyridin-5-yl)-1H-pyridin-2-one]	> 3000 nM
CC(C)N1CCN(c2ccc(Nc3ccc(-c4cc[nH]c(=O)c4)n4ccnc34)cc2F)CC1 [Compound 103]	101 to 1000 nM
O=C(c1ccc(Nc2ccc(-c3cc[nH]c(=O)c3)n3ccnc23)cc1)N1CCC(N2CCCCC2)CC1 [Compound 102]	< 100 nM
C[C@@H]1CN(C)[C@@H](C)CN1c1ccc(Nc2ccc(-c3cc[nH]c(=O)c3)n3ccnc23)cc1F [Compound 97]	101 to 1000 nM
CC(=O)NCCNC(=O)c1ccc(Nc2ccc(-c3ccc4c(c3)CNC4=O)n3ccnc23)cc1 [Compound 57, N-(2-acetamidoethyl)-4-(5-(1-oxoisoindolin-5-yl)imidazo[1,2-a]pyridin-8-ylamino)benzamide]	101 to 1000 nM
O=c1cc(-c2ccc(Nc3ccc(N4CCS(=O)(=O)CC4)cc3)c3nccn23)cc[nH]1 [Compound 112, 4-{8-[4-(1,1-Dioxo-1lambda*6*- thiomorpholin-4-yl)-phenylamino]-imidazo[1,2-a]pyridin-5-yl}-1H-pyridin-2-one]	> 3000 nM
CC1CCN(C2CCN(c3ccc(Nc4ccc(-c5cc[nH]c(=O)c5)n5ccnc45)cc3)CC2)CC1 [Compound 121, 4-{8-[4-(4-Methyl-[1,4′]bipiperidinyl-1′-yl)-phenylamino]-imidazo[1,2-a]pyridin-5-yl}-1H-pyridin-2-one]	101 to 1000 nM
C[C@@H]1CN(c2ccc(Nc3ccc(-c4cc[nH]c(=O)c4)n4ccnc34)cc2F)C[C@H](C)N1C [Compound 101]	101 to 1000 nM
O=c1cc(-c2ccc(Nc3ccc(N4CCCC4)c(Cl)c3)c3nccn23)cc[nH]1 [Compound 125, 4-[8-(3-Chloro-4-pyrrolidin-1-yl-phenylamino)-imidazo[1,2-a]pyridin-5-yl]-1H-pyridin-2-one]	> 3000 nM
O=c1cc(-c2ccc(Nc3ccc(N4CCC(F)(F)CC4)cc3)c3nccn23)cc[nH]1 [Compound 117, 4-{8-[4-(4,4-Difluoro-piperidin-1-yl)-phenylamino]-imidazo[1,2-a]pyridin-5-yl}-1H-pyridin-2-one]	> 3000 nM
c1cn2c(-c3cn[nH]c3)ccc(Nc3ccc(N4CCC(N5CCCCC5)CC4)cc3)c2n1 [Compound 119, (4[1,4′]Bipiperidinyl-1′-yl-phenyl)-[5-(1H-pyrazol-4-yl)-imidazo[1,2-a]pyridin-8-yl]-amine]	101 to 1000 nM

Next, values leading:

IC50	SMILES
101 to 1000 nM	CC(C)N1CCN(c2ccc(Nc3ccc(-c4cc[nH]c(=O)c4)n4ccnc34)cc2Cl)CC1 [Compound 105]
101 to 1000 nM	O=C(NCc1cccc(-n2cccc2)c1)c1ccc(Nc2ccc(-c3ccc4c(c3)CNC4=O)n3ccnc23)cc1 [Compound 35, 4-[5-(1-Oxo-2,3-dihydro-1H-isoindol-5-yl)-imidazo[1,2-a]pyridin-8-ylamino]-N-(3-pyrrol-1-yl-benzyl)-benzamide]
1000 to 3000 nM	CC(C)N1CCN(c2ccc(Nc3ccc(-c4ccc(O)c(F)c4)n4ccnc34)cc2)CC1 [Compound 93]
1000 to 3000 nM	O=c1cc(-c2ccc(Nc3ccc(N4CCCCC4)cc3)c3nccn23)cc[nH]1 [Compound 115, 4-[8-(4-Piperidin-1-yl-phenylamino)-imidazo[1,2-a]pyridin-5-yl]-1H-pyridin-2-one]
101 to 1000 nM	O=C(NCCN1CCCCC1)c1ccc(Nc2ccc(-c3ccc4c(c3)CNC4=O)n3ccnc23)cc1 [Compound 56, 4-(5-(1-oxoisoindolin-5-yl)imidazo[1,2-a]pyridin-8-ylamino)-N-(2-(piperidin-1-yl)ethyl)benzamide]
> 3000 nM	O=c1cc(-c2ccc(Nc3ccc(N4CCCC(F)(F)C4)cc3)c3nccn23)cc[nH]1 [Compound 118, 4-{8-[4-(3,3-Difluoro-piperidin-1-yl)-phenylamino]-imidazo[1,2a]pyridin-5-yl}-1H-pyridin-2-one]
101 to 1000 nM	O=C1NCc2cc(-c3ccc(Nc4ccc(-n5cncn5)cc4)c4nccn34)ccc21 [Compound 31, 5-(8-(4-(1H-1,2,4-triazol-1-yl)phenylamino)imidazo[1,2-a]pyridin-5-yl)isoindolin-1-one]
101 to 1000 nM	CC1CCN(C2CCN(C(=O)c3ccc(Nc4ccc(-c5ccc6c(c5)CNC6=O)n5ccnc45)cc3)CC2)CC1 [Compound 55, 5-{8-[4-(4-Methyl-[1,4′]bipiperidinyl-1′-carbonyl)-phenylamino]-imidazo [1,2-a]pyridin-5-yl}-2,3-dihydro-isoindol-1-one]
101 to 1000 nM	CC1CCCN(C2CCN(c3ccc(Nc4ccc(-c5cc[nH]c(=O)c5)n5ccnc45)cc3)CC2)C1 (stereo not shown) [Compound 122, 4-{8-[4-(3-Methyl-[1,4′]bipiperidinyl-1′-yl)-phenylamino]-imidazo[1,2-a]pyridin-5-yl}-1H-pyridin-2-one]
101 to 1000 nM	C[C@@H]1CN(C)[C@@H](C)CN1c1ccc(Nc2ccc(-c3cc[nH]c(=O)c3)n3ccnc23)cc1 [Compound 99]
1000 to 3000 nM	O=C1NCc2cc(-c3ccc(Nc4ccc(-n5cccn5)cc4)c4nccn34)ccc21 [Compound 30, 5-(8-(4-(1H-pyrazol-1-yl)phenylamino)imidazo[1,2-a]pyridin-5-yl)isoindolin-1-one]
